From patent US20100204203A1, “Chemical Compounds 637: Pyridopyrimidinediones as PDE4 Inhibitors” (priority 2007, published 2010) come the findings set out here.

The target in this assay is recombinant Human Phosphodiesterase B2 (PDE4B2) (Homo sapiens, UniProt Q07343). Description: Human Phosphodiesterase B2 Radiometric Assay (yttrium silicate SPA beads, [3H]cyclic AMP). In kind it is biochemical. The settings on record: recombinant human PDE4B2, radiometric SPA assay, 8 nM [3H]cyclic AMP; read-out: PDE4B2 pIC50 (converted). The method, boiled down: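 Read-out is scintillation proximity: yttrium silicate beads (with 18 mM ZnSO4, added to stop the reaction) bind 5′AMP formed from 8 nM [3H]cAMP over 20 min. Beforehand, compound and 0.1 mg/mL enzyme were preincubated 30 min at 30 °C in pH 7.5 HEPES buffer with MgCl2, EGTA and Brij 35; pIC50 values were curve-fitted.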
Sequence of recombinant Human Phosphodiesterase B2 (PDE4B2) (Q07343 1-564 isoform Q07343-2): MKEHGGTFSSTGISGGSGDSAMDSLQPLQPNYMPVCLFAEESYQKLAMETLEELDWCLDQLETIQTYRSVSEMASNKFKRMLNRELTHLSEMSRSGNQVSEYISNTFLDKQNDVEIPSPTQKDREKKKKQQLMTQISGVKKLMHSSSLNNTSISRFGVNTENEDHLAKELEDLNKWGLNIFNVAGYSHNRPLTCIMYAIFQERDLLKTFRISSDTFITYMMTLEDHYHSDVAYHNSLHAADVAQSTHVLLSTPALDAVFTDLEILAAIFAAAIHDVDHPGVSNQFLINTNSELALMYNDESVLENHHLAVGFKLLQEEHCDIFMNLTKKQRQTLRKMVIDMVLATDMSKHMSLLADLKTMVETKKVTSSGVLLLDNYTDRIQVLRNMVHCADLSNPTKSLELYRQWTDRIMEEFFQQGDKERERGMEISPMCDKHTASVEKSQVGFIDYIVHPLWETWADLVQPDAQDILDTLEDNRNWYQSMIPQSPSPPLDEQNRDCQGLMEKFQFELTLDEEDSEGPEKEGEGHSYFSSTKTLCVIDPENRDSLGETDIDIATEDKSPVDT

Take `C[C@@H]1CN(Cc2ccc(-c3cccc(-n4c(=O)n([C@H]5CC[C@@H](NC(=O)c6ccc7ccccc7n6)CC5)c(=O)c5cc(F)cnc54)c3)cc2)C[C@H](C)N1` [Example 300, N-{cis-4-[1-(4′-{[(3R,5S)-3,5-dimethylpiperazin-1-yl]methyl}biphenyl-3-yl)-6-fluoro-2,4-dioxo-1,4-dihydropyrido[2,3-d]pyrimidin-3(2H)-yl]cyclohexyl} quinoline-2-carboxamide]: the IC50 is 0.0316 nM. With `Cc1nc(C(=O)N[C@H]2CC[C@@H](n3c(=O)c4cc(F)cnc4n(-c4cccc(-c5ccc(CN6C[C@@H](C)N[C@@H](C)C6)cc5)c4)c3=O)CC2)cs1` [Example 301, N-{cis-4-[1-(4′-{[(3R,5S)-3,5-dimethylpiperazin-1-yl]methyl}biphenyl-3-yl)-6-fluoro-2,4-dioxo-1,4-dihydropyrido[2,3-d]pyrimidin-3(2H)-yl]cyclohexyl}-2-methyl-1,3-thiazole-4-carboxamide], the IC50 was 0.0398 nM. Regarding `CCCCc1ccc(C(=O)N[C@H]2CC[C@@H](n3c(=O)c4cc(F)cnc4n(-c4cccc(-c5ccc(CN6C[C@@H](C)N[C@@H](C)C6)cc5)c4)c3=O)CC2)nc1` [Example 302, 5-butyl-N-{cis-4-[1-(4′-{[(3R,5S)-3,5-dimethylpiperazin-1-yl]methyl}biphenyl-3-yl)-6-fluoro-2,4-dioxo-1,4-dihydropyrido[2,3-d]pyrimidin-3(2H)-yl]cyclohexyl} pyridine-2-carboxamide], the IC50 was 0.1 nM. The same measure for `C[C@@H]1CN(Cc2ccc(-c3cccc(-n4c(=O)n([C@H]5CC[C@@H](NC(=O)c6cnc7ccccc7n6)CC5)c(=O)c5cc(F)cnc54)c3)cc2)C[C@H](C)N1` [Example 303, N-{cis-4-[1-(4′-{[(3R,5S)-3,5-dimethylpiperazin-1-yl]methyl}biphenyl-3-yl)-6-fluoro-2,4-dioxo-1,4-dihydropyrido[2,3-d]pyrimidin-3(2H)-yl]cyclohexyl} quinoxaline-2-carboxamide]: 0.02 nM; for `C[C@@H]1CN(Cc2ccc(-c3cccc(-n4c(=O)n([C@H]5CC[C@@H](NC(=O)c6cc7ccccc7cn6)CC5)c(=O)c5cc(F)cnc54)c3)cc2)C[C@H](C)N1` [Example 304, N-{cis-4-[1-(4′-{[(3R,5S)-3,5-dimethylpiperazin-1-yl]methyl}biphenyl-3-yl)-6-fluoro-2,4-dioxo-1,4-dihydropyrido[2,3-d]pyrimidin-3(2H)-yl]cyclohexyl} isoquinoline-3-carboxamide]: 0.0501 nM. The same measure for `C[C@@H]1CN(Cc2ccc(-c3cccc(-n4c(=O)n([C@H]5CC[C@@H](NC(=O)c6nc7ccccc7[nH]6)CC5)c(=O)c5cc(F)cnc54)c3)cc2)C[C@H](C)N1` [Example 305, N-{cis-4-[1-(4′-{[(3R,5S)-3,5-dimethylpiperazin-1-yl]methyl}biphenyl-3-yl)-6-fluoro-2,4-dioxo-1,4-dihydropyrido[2,3-d]pyrimidin-3(2H)-yl]cyclohexyl}-1H-benzimidazole-2-carboxamide]: 0.0501 nM. `O=C(N[C@H]1CC[C@@H](n2c(=O)c3cc(F)cnc3n(-c3cccc(-c4ccc(CN5CCCOCC5)cc4)c3)c2=O)CC1)C1CC1` [Example 306, N-{cis-4-[6-fluoro-1-[4′-(1,4-oxazepan-4-ylmethyl)biphenyl-3-yl]-2,4-dioxo-1,4-dihydropyrido[2,3-d]pyrimidin-3(2H)-yl]cyclohexyl} cyclopropanecarboxamide]: the IC50 is 0.251 nM. For the compound `O=C(N[C@H]1CC[C@@H](n2c(=O)c3cc(F)cnc3n(-c3cccc(-c4ccc(CN5CCCOCC5)cc4)c3)c2=O)CC1)c1ccc(OCCN2CCCC2)cc1` [Example 307, N-{cis-4-[6-fluoro-1-[4′-(1,4-oxazepan-4-ylmethyl)biphenyl-3-yl]-2,4-dioxo-1,4-dihydropyrido[2,3-d]pyrimidin-3(2H)-yl]cyclohexyl}-4-(2-pyrrolidin-1-ylethoxy)benzamide], the IC50 is 2.51 nM. Regarding `Cc1cccc(C(=O)N[C@H]2CC[C@@H](n3c(=O)c4cc(F)cnc4n(-c4cccc(-c5ccc(CN6CCCN(C)CC6)cc5)c4)c3=O)CC2)n1` [Example 308, N-{cis-4-[6-fluoro-1-{4′-[(4-methyl-1,4-diazepan-1-yl)methyl]biphenyl-3-yl}-2,4-dioxo-1,4-dihydropyrido[2,3-d]pyrimidin-3 (2H)-yl]cyclohexyl}-6-methylpyridine-2-carboxamide], the IC50 was 0.0631 nM.

Take `Cc1nc(C(=O)N[C@H]2CC[C@@H](n3c(=O)c4cc(F)cnc4n(-c4cccc(-c5ccc(CN6CCCN(C)CC6)cc5)c4)c3=O)CC2)cs1` [Example 309, N-{cis-4-[6-fluoro-1-{4′-[(4-methyl-1,4-diazepan-1-yl)methyl]biphenyl-3-yl}-2,4-dioxo-1,4-dihydropyrido[2,3-d]pyrimidin-3(2H)-yl]cyclohexyl}-2-methyl-1,3-thiazole-4-carboxamide]: the IC50 was 0.1 nM.

Turning to `CN1CCCN(Cc2ccc(-c3cccc(-n4c(=O)n([C@H]5CC[C@@H](NC(=O)c6cc7c(o6)CCCC7=O)CC5)c(=O)c5cc(F)cnc54)c3)cc2)CC1` [Example 310, N-{cis-4-[6-fluoro-1-{4′-[(4-methyl-1,4-diazepan-1-yl)methyl]biphenyl-3-yl}-2,4-dioxo-1,4-dihydropyrido[2,3-d]pyrimidin-3(2H)-yl]cyclohexyl}-4-oxo-4,5,6,7-tetrahydro-1-benzofuran-2-carboxamide], the IC50 was 0.126 nM. Take `CN1CCCN(Cc2ccc(-c3cccc(-n4c(=O)n([C@H]5CC[C@@H](NC(=O)C(C)(C)N)CC5)c(=O)c5cc(F)cnc54)c3)cc2)CC1` [Example 311, N-{cis-4-[6-fluoro-1-{4′-[(4-methyl-1,4-diazepan-1-yl)methyl]biphenyl-3-yl}-2,4-dioxo-1,4-dihydropyrido[2,3-d]pyrimidin-3(2H)-yl]cyclohexyl}-2-methylalaninamide]: the IC50 is 1 nM. As to `CN1CCCN(Cc2ccc(-c3cccc(-n4c(=O)n([C@H]5CC[C@@H](NC(=O)[C@@H](N)Cc6ccccc6)CC5)c(=O)c5cc(F)cnc54)c3)cc2)CC1` [Example 312, N-{cis-4-[6-fluoro-1-{4′-[(4-methyl-1,4-diazepan-1-yl)methyl]biphenyl-3-yl}-2,4-dioxo-1,4-dihydropyrido[2,3-d]pyrimidin-3(2H)-yl]cyclohexyl}-L-phenylalaninamide], the IC50 is 0.2 nM. As for `CC(C)[C@@H](N)C(=O)N[C@H]1CC[C@@H](n2c(=O)c3cc(F)cnc3n(-c3cccc(-c4ccc(CN5CCCN(C)CC5)cc4)c3)c2=O)CC1` [Example 313, N-{cis-4-[6-fluoro-1-{4′-[(4-methyl-1,4-diazepan-1-yl)methyl]biphenyl-3-yl}-2,4-dioxo-1,4-dihydropyrido[2,3-d]pyrimidin-3(2H)-yl]cyclohexyl}-D-valinamide], the IC50 was 0.398 nM.

For `CC(C)[C@H](N)C(=O)N[C@H]1CC[C@@H](n2c(=O)c3cc(F)cnc3n(-c3cccc(-c4ccc(CN5CCCN(C)CC5)cc4)c3)c2=O)CC1` [Example 314, N-{cis-4-[6-fluoro-1-{4′-[(4-methyl-1,4-diazepan-1-yl)methyl]biphenyl-3-yl}-2,4-dioxo-1,4-dihydropyrido[2,3-d]pyrimidin-3(2H)-yl]cyclohexyl}-L-valinamide], the IC50 was 0.398 nM. The same measure for `COC[C@H](C)N(C)Cc1cc(O)ccc1-c1cccc(-n2c(=O)n([C@H]3CC[C@@H](NCc4cn5cc(F)ccc5n4)CC3)c(=O)c3cc(F)cnc32)c1` [Example 315, 6-fluoro-3-(cis-4-{[(6-fluoroimidazo[1,2-a]pyridin-2-yl)methyl]amino}cyclohexyl)-1-(4′-hydroxy-2′-{[[(1S)-2-methoxy-1-methylethyl](methyl)amino]methyl}biphenyl-3-yl)pyrido[2,3-d]pyrimidine-2,4(1H,3H)-dione]: 0.158 nM; for `C[C@@H]1COCCN1Cc1cc(O)ccc1-c1cccc(-n2c(=O)n([C@H]3CC[C@@H](NCc4cn5cc(F)ccc5n4)CC3)c(=O)c3cc(F)cnc32)c1` [Example 316, 6-fluoro-3-(cis-4-{[(6-fluoroimidazo[1,2-a]pyridin-2-yl)methyl]amino}cyclohexyl)-1-(4′-hydroxy-2′-{[(3R)-3-methylmorpholin-4-yl]methyl}biphenyl-3-yl)pyrido[2,3-d]pyrimidine-2,4(1H,3H)-dione]: 0.0316 nM; for `C[C@H]1COCCN1Cc1cc(O)ccc1-c1cccc(-n2c(=O)n([C@H]3CC[C@@H](NCc4cn5cc(F)ccc5n4)CC3)c(=O)c3cc(F)cnc32)c1` [Example 317, 6-fluoro-3-(cis-4-{[(6-fluoroimidazo[1,2-a]pyridin-2-yl)methyl]amino}cyclohexyl)-1-(4′-hydroxy-2′-{[(3S)-3-methylmorpholin-4-yl]methyl}biphenyl-3-yl)pyrido[2,3-d]pyrimidine-2,4(1H,3H)-dione]: 0.01 nM.

For the compound `C[C@H](CO)N(C)Cc1cc(O)ccc1-c1cccc(-n2c(=O)n([C@H]3CC[C@@H](NCc4cn5cc(F)ccc5n4)CC3)c(=O)c3cc(F)cnc32)c1` [Example 319, 6-fluoro-3-(cis-4-{[(6-fluoroimidazo[1,2-a]pyridin-2-yl)methyl]amino}cyclohexyl)-1-(4′-hydroxy-2′-{[[(1R)-2-hydroxy-1-methylethyl](methyl)amino]methyl}biphenyl-3-yl)pyrido[2,3-d]pyrimidine-2,4(1H,3H)-dione], the IC50 was 0.631 nM.

For `C[C@@H](O)CN(C)Cc1cc(O)ccc1-c1cccc(-n2c(=O)n([C@H]3CC[C@@H](NCc4cn5cc(F)ccc5n4)CC3)c(=O)c3cc(F)cnc32)c1` [Example 320, 6-fluoro-3-(cis-4-{[(6-fluoroimidazo[1,2-c]pyridin-2-yl)methyl]amino}cyclohexyl)-1-(4′-hydroxy-2′-{[[(2R)-2-hydroxypropyl](methyl)amino]methyl}biphenyl-3-yl)pyrido[2,3-d]pyrimidine-2,4(1H,3H)-dione], the IC50 is 0.2 nM.
